Data: article PMC4949440 (Scientific Reports, 2016)
Like-named read-outs stand apart in the source and are kept apart here.

What was measured:
HL-60 cells [1] = experiment: cells; assay type: cell-based, human
MCF-7 cells = experiment: cells; assay type: cell-based; conditions: read-out: IC50 MCF-7
SGC7901 cells = experiment: cells; assay type: cell-based; conditions: read-out: IC50 SGC7901
GES-1 cells = experiment: cells; assay type: cell-based; conditions: read-out: IC50 GES-1
HEK293 cells = experiment: cells; assay type: cell-based
NIH3T3 cells = experiment: cells; assay type: cell-based
HL-60 cells [2] = assay type: cell-based, human; conditions: for apoptosis rate (FITC+/PI− and FITC+/PI+): control 2.9%
HL-60 cells [3] = experiment: Hoechst 33342 staining, morphology; assay type: cell-based, human; conditions: 2a (1 μM and 2 μM) or 2b (0.75 μM and 1.5 μM), 24 h
Procedure: HL-60 cells treated with 2a (1 μM and 2 μM) or 2b (0.75 μM and 1.5 μM) were plated in 12-well plates, and the medium was removed after 24 h, followed by the addition of 5 μg.mL^−1 Hoechst 33342. After being incubated for 30 min in dark at 37 °C, the samples were visualized and photographed using a C1-si Laser Scanning Confocal Microscope (Nikon, Japan)[27].

HL-60 cells [4] = experiment: Intracellular ROS level (DCFH-DA); assay type: cell-based, human; conditions: 2 μM 2a or 1.5 μM 2b, 24 h
Procedure: HL-60 cells treated with 2 μM 2a or 1.5 μM 2b were plated in 12-well plates. After 24 h, each sample of cells was collected and washed once with PBS. The cells were incubated with 300 μL FBS-free medium containing DCFH-DA (1 μM) for 30 min in dark at 37 °C. Data were obtained and analyzed using a C6 flow cytometer (BD Biosciences, USA)[27].
In laser scanning confocal experiment, the medium was removed after 24 h incubation. 1 mL FBS-free medium with DCFH-DA (10 μM) was added to each sample. Then continue the incubation for 30 min in dark at 37 °C. The samples were visualized and photographed using a C1-si Laser Scanning Confocal Microscope (Nikon, Japan).
(§1) In protective trial, the cells were pre-incubated with the protective agents for 4 h and other operations were in accordance with the above.

HL-60 cells [5] = experiment: Total glutathione and GSH/GSSG level; assay type: cell-based, human; conditions: 2 μM 2a or 1.5 μM 2b; for ratio of GSH/GSSG: with or without 0.075 mM LA
Procedure: The cells were cultured in a 6-well plate and treated with 2 μM 2a or 1.5 μM 2b. After 24 h, the cells were collected and washed twice with PBS. The protein content was quantified by the use of Bradford procedure. Then each sample was treated according to the manufacturer’s instructions (beyotime, Shanghai, China). The absorbance was measured every 5 minutes at 405 nm with microplate reader.
as §1

HL-60 cells [6] = experiment: Mitochondrial membrane potential (JC-1 or Rh123, flow cytometry); assay type: cell-based, human
Procedure: HL-60 cells treated with 2a (1.5 μM and 3 μM) or 2b (1 μM and 2 μM) were plated in 12-well plates. After 24 h, cells were collected and washed once with PBS. Then, the cells were handled with JC-1 according to the manufacturer’s instructions (Multi Sciences BiotechCo., Ltd, Hangzhou, China) or Rh123. Data were obtained and analyzed using a C6 flow cytometer (BD Biosciences, USA).
as §1

HL-60 cells [7] = experiment: Released cytochrome c level (ELISA); assay type: cell-based, human; conditions: 3 μM 2a or 2 μM 2b, 24 h
Procedure: HL-60 cells with 3 μM 2a or 2 μM 2b were incubated in a 12-well plate for 24 h. The cells were sacrificed and dealt with ELISA Kit (Meilian BiotechCo., Ltd, Shanghai, China) according to the manufacturer’s instructions. The absorbance was measured at 450 nm with microplate reader.
as §1

Caspase-3 in HL-60 cells = experiment: Caspase-3 activity (colorimetric, cell extracts); assay type: cell-based, human
Procedure: HL-60 cells were treated with 3 μM 2a or 2 μM 2b for 12 h in a 6-well plate. Each sample was collected and washed twice with PBS. Then the cells were incubated with moderate lysis buffer from the kit on ice. The cell extract was handled on the basis of manufacturer’s instructions (beyotime, Shanghai, China). After 3 h, the absorbance at 405 nm was measured using a microplate reader.
as §1

normal leukocyte = experiment: Effect on normal leukocyte (MTT viability and Annexin V-FITC/PI apoptosis); assay type: cell-based, human; conditions: 3.5 μM 2a, 2.5 μM 2b or 15 μM As2O3 for 6 h, 12 h or 24 h
Procedure: Normal human fresh peripheral blood with EDTA anticoagulant was dealt with Red Blood Cell Lysis Buffer according to manufacturer’s instructions (Beyotime, Shanghai, China) to obtain the normal leukocyte. […] Then, the apoptosis rate using Annexin V-FITC/PI staining and cell viability using MTT method were tested respectively. There are 8 independent normal human fresh peripheral blood samples in all to be tested. This study was carried out in accordance with relevant guidelines and regulations of Wuhan University and the experiment protocol was approved by Zhongnan Hospital of Wuhan University. Additionally, the informed consent was obtained from all subjects.

[8] = Homo sapiens, HL-60, 24 h, read-out: IC50 HL-60
[9] = Homo sapiens, HEK293, read-out: IC50 HEK293
[10] = Mus musculus, NIH3T3, read-out: IC50 NIH3T3
[11] = 3 μM 2a or 2 μM 2b alone, 24 h (Fig. 2a, Fig. 6c)
[12] = 3 μM 2a or 2 μM 2b alone, 24 h, LA experiment (Fig. 6d)
[13] = 3 μM 2a or 2 μM 2b with 0.075 mM LA pre-incubating, 24 h
[14] = 3 μM 2a or 2 μM 2b with 2 mM NAC, 24 h
[15] = 3 μM 2a or 2 μM 2b, 24 h (Fig. 2a)
[16] = 3 μM 2a or 2 μM 2b after pre-adding 0.075 mM LA
[17] = 3 μM 2a or 2 μM 2b, 24 h (Fig. 5b), control 30.8%
[18] = 3 μM 2a or 2 μM 2b alone, 24 h, 12 h (method)
[19] = 3 μM 2a or 2 μM 2b with 0.075 mM LA

| Compound | concentration that could kill the majority of HL-60 cells (HL-60 cells [1]) | IC50 (HL-60 cells [1]; [8]) | IC50 (MCF-7 cells; Homo sapiens, MCF7, 24 h) | IC50 (SGC7901 cells; Homo sapiens, SGC-7901, 24 h) | IC50 (GES-1 cells; Homo sapiens, GES1, 24 h) | IC50 (HEK293 cells; [9]) | IC50 (NIH3T3 cells; [10]) | apoptosis rate (FITC+/PI− and FITC+/PI+) (HL-60 cells [2]; 1.5 μM 2a or 1 μM 2b, 24 h) | Q1-LL live (normal) cells (HL-60 cells [2]; [11]) | apoptosis rate (HL-60 cells [2]; [12]) | apoptosis rate (HL-60 cells [2]; [13]) | Q1-LL live (normal) cells (HL-60 cells [2]; [14]) | apoptosis rate (FITC+/PI− and FITC+/PI+) (HL-60 cells [2]; [15]) | morphology changes (Hoechst 33342 fluorescence) (HL-60 cells [3]) | relative fluorescence intensity of DCF (ROS) versus control (HL-60 cells [4]) | ROS level with antioxidant (HL-60 cells [4]; 0.075 mM LA pre-incubated 4 h) | ROS level with antioxidant (HL-60 cells [4]; 1 mM DTT pre-incubated 4 h) | ROS level with antioxidant (HL-60 cells [4]; 1 mM VC pre-incubated 4 h) | ROS level with antioxidant (HL-60 cells [4]; 2 mM NAC pre-incubated 4 h) | ROS level with antioxidant (HL-60 cells [4]; pretreated with GSH) | also measured |
| --- | --- | --- | --- | --- | --- | --- | --- | --- | --- | --- | --- | --- | --- | --- | --- | --- | --- | --- | --- | --- | --- |
| COc1cc(C=Nc2ccc([As]=O)cc2)ccc1O (centres unmarked) [Compound 2b, 2-methoxy-4-(((4-(oxoarsanyl)phenyl)imino)methyl)phenol] | less than 1 μM | 0.51 ± 0.1 µM | 2.81 ± 1.34 µM | 2.12 ± 0.48 µM | 1.57 ± 0.26 µM | 2.29 ± 0.34 µM | 2.72 ± 0.64 µM | 10.7% | 34.4% | 86.1% | 11.7% | 92.1% | 65.3% | cell nuclear shrinkage and DNA incision | doubled approximately | scavenging ROS completely | eliminate the majority of ROS | eliminate the majority of ROS | removed completely | began to decrease by a concentration-dependent way | content of intracellular total GSH (HL-60 cells [5]; 24 h): decreased significantly; content of intracellular total GSH (HL-60 cells [5]; pretreatment with 0.075 mM LA): could recover the content; ratio of GSH/GSSG (HL-60 cells [5]): showed the similar variation trend; intensity of Rh123 (mitochondrial membrane potential) (HL-60 cells [6]; 3 μM 2a or 2 μM 2b): drop obviously; intensity of Rh123 (mitochondrial membrane potential) (HL-60 cells [6]; [16]): recovered to some extent; proportion of mitochondrial membrane potential collapse (P2, JC-1) (HL-60 cells [6]; 3 μM 2a or 2 μM 2b with 0.075 mM LA pre-incubation (Fig. 5b)): ~12%; proportion of mitochondrial membrane potential collapse (P2, JC-1) (HL-60 cells [6]; [17]): 78.5%; relative content of cytochrome c versus control (HL-60 cells [7]): five times; activity of Caspase-3 (Caspase-3 in HL-60 cells; [18]): enhanced; activity of Caspase-3 (Caspase-3 in HL-60 cells; [19]): could be deterred by 0.075 mM LA; influence on normal leukocyte (cell viability, apoptosis) versus control (normal leukocyte): no more influence on normal leukocyte than control |
| O=[As]c1ccc(N=Cc2ccccc2O)cc1 (centres unmarked) [Compound 2a, 2-(((4-(oxoarsanyl)phenyl)imino)methyl)phenol] | less than 1 μM | 0.77 ± 0.1 µM | 2.53 ± 0.41 µM | 4.03 ± 0.89 µM | 5.96 ± 1.23 µM | 4.36 ± 0.62 µM | 7.43 ± 0.37 µM | 9.3% | 44.3% | 55.7% | 11.4% | 86.6% | 55.5% | cell nuclear shrinkage and DNA incision | doubled approximately | scavenging ROS completely | scavenge additional ROS completely | decrease the level of ROS to that of control | scavenge additional ROS completely | began to decrease by a concentration-dependent way | content of intracellular total GSH (HL-60 cells [5]; 24 h): decreased significantly; content of intracellular total GSH (HL-60 cells [5]; pretreatment with 0.075 mM LA): could recover the content; ratio of GSH/GSSG (HL-60 cells [5]): showed the similar variation trend; intensity of Rh123 (mitochondrial membrane potential) (HL-60 cells [6]; 3 μM 2a or 2 μM 2b): drop obviously; intensity of Rh123 (mitochondrial membrane potential) (HL-60 cells [6]; [16]): recovered to some extent; proportion of mitochondrial membrane potential collapse (P2, JC-1) (HL-60 cells [6]; [17]): 68.3%; relative content of cytochrome c versus control (HL-60 cells [7]): approximately six times; activity of Caspase-3 (Caspase-3 in HL-60 cells; [18]): enhanced; activity of Caspase-3 (Caspase-3 in HL-60 cells; [19]): could be deterred by 0.075 mM LA; influence on normal leukocyte (cell viability, apoptosis) versus control (normal leukocyte): no more influence on normal leukocyte than control |
| O=[As]c1ccc(N=Cc2c3ccccc3cc3ccccc23)cc1 (centres unmarked) [Compound 4a, 1-(anthracen-9-yl)-N-(4-(oxoarsanyl)phenyl) methanimine] |  | 15.9 ± 0.56 µM | 11.3 ± 3.4 µM | 7.63 ± 3.02 µM | 8.72 ± 3.76 µM |  |  |  |  |  |  |  |  |  |  |  |  |  |  |  | IC50 (HL-60 cells [1]; Homo sapiens, HL-60, read-out: half inhibitory concentration (IC50) for HL-60 cells): > 10 µM; melting point: 91 to 92 °C |
| O=[As]O [NaAsO2, reference compound] |  |  |  |  |  |  |  |  |  |  |  |  |  |  |  |  |  |  |  |  | IC50 (HL-60 cells [1]; read-out: IC50 HL-60): 10.6 ± 3.06 µM; IC50 (MCF-7 cells): 31.7 ± 0.67 µM; IC50 (SGC7901 cells): 59 ± 11.8 µM; IC50 (GES-1 cells): 42.6 ± 11.6 µM; IC50 (HEK293 cells; read-out: IC50 HEK293): 14.6 ± 0.61 µM; IC50 (NIH3T3 cells; read-out: IC50 NIH3T3): 10.8 ± 1.66 µM |
| Oc1ccccc1C=Nc1ccccc1 [Compound 1a, 2-((phenylimino)methyl) phenol, reference compound] |  | > 100 µM | > 100 µM | > 100 µM | > 100 µM |  |  |  |  |  |  |  |  |  |  |  |  |  |  |  |  |
